Measured values published in US20260193278A1, “NOVEL PHTHALOCYANINE COMPOUNDS AND THE USE THEREOF FOR THE TREATMENT OF DISEASES” (RHODES UNIVERSITY, priority 2022, published 2026).

Tests used:
Assay type in all cases: cell-based
[1] = tested on: MCF-7 (human breast adenocarcinoma) cells; assay: In vitro dark cytotoxicity, MCF-7 cells (anticancer studies); details: MCF-7, dark; for Min. Death conc. / Cell death: 24 h; for Cell death: at the Min. Death conc.
Method: MCF-7 (human breast adenocarcinoma) cells were cultured in Dulbecco's modified Eagle's medium-10% fetal bovine serum (DMEM-FBS) and PSA (penicillin/streptomycin/Amphotericin B) at 37° C. in an incubator (5% CO2) in 75 cm^2 vented flasks. The cultures were grown as a monolayer. The growth cells were transferred to well plates by trypsinizing with 0.25% trypsin-EDTA. The Pc stock concentrations were prepared by separately dissolving them in DMSO (1%) and diluting in water and the Pc gradient concentration was prepared by taking known aliquots from the stock and finally made up to marked volume with supplemented media with phenol red.
It was studied from […] both in the dark. 100 μL each of the newly prepared gradient Pcs concentration of 0 μg/mL (control), 5 μg/mL, 10 μg/mL, 20 μg/mL, 40 μg/mL, 60 μg/mL 80 μg/mL, 100 μg/mL and 120 μg/mL were administered on the incubated seeded cells. The 96 well cell culture plates containing the cells and the Pcs were incubated at 37° C. and 5% CO2 in the dark for 24 h. After 24 h treatment, the wells were rinsed with 100 μL DPBS. Cell survival was expressed as percentage of control cells (cells without Pcs). Post treatment cell viability was measured using the cell proliferation […] reagent (WST-1 assay) on a Synergy 2 multi-mode microplate reader (BioTek®) at a wavelength of 450 nm according to the following equation 1.

S. aureus = assay: Dark toxicity against S. aureus, concentration study at 0 min (CFU counting); details: for Staph log CFU/ml (logarithmic reduction value) / Staph μM (concentration corresponding to the logarithmic reduction): in the dark, at 0 min; for Staph log CFU/ml (logarithmic reduction value): at the concentration of the μM column; for Staph μM (concentration corresponding to the logarithmic reduction): range tested 0-10 μM
Method: (§1) 500 μM stock solutions of the samples were prepared in ultra-pure water (5% DMSO) and used at different concentrations in the biological assays.
(§2) Two bacterial strains were used for the PACT studies; S. aureus as a gram-(+) bacterium and E. coli as a gram-(−) negative bacterium. Stock cultures were grown aerobically in 6 mL of nutrient broth incubated at 37° C. on a rotary shaker (~200 rpm) to obtain bacteria cultures. The incubation was maintained until the optical density of the culture at 600 nm was determined to be between 0.6 and 0.8. The resulting bacterial solution was centrifuged to remove the broth, and bacterial cells were washed three times with PBS. The solution of the bacteria was prepared by diluting with PBS to obtain […] bacteria solutions corresponding to ~10^9 and ~10^8 colony forming units (CFU)/mL, respectively.
(§3) The bacteria/photosensitizer mixtures were incubated in an oven equipped with a shaker for 30 min in the dark at 37° C. before plating. 100 μL of solution was taken from the suspension and was immediately inoculated on agar plates to determine the activity at 0 min without treatment. The number of colonies was then counted on each plate after 18 h of incubation at 37° C. Control treatments were performed in the absence of photosensitizer. All experiments were carried out three times. The data for CFU/mL were converted to the logarithmic form.

E. coli = assay: Dark toxicity against E. coli, concentration study at 0 min (CFU counting); details: in the dark; for Ecoli log CFU/ml (logarithmic reduction value): at the concentration of the μM column; for Ecoli μM (concentration corresponding to the logarithmic reduction): range tested 0-15 μM
Method: as §1, §2, §3

| Molecule | Min. Death conc. [1] | Cell death [1] | Staph log CFU/ml (logarithmic reduction value) (S. aureus) | Staph μM (concentration corresponding to the logarithmic reduction) (S. aureus) | Ecoli log CFU/ml (logarithmic reduction value) (E. coli) | Ecoli μM (concentration corresponding to the logarithmic reduction) (E. coli) | optimal concentration to kill the cancer cells [1] | cancer cells killed at the optimal concentration ([1]; at the optimal concentration) | log reduction (dark toxicity) (S. aureus; dark, 0 min, at 10 μM) |
| --- | --- | --- | --- | --- | --- | --- | --- | --- | --- |
| C[n+]1c(-c2ccc(Oc3ccc4c(c3)C3=Nc5c6ccc(Oc7ccc(-c8[nH]c9cc(F)cc(Br)c9[n+]8C)cc7)cc6c6[n]5[Co][n]5c(c7ccc(Oc8ccc(-c9[nH]c%10cc(F)cc(Br)c%10[n+]9C)cc8)cc7c5=NC5=NC(=N6)c6cc(Oc7ccc(-c8[nH]c9cc(F)cc(Br)c9[n+]8C)cc7)ccc65)=NC4=N3)cc2)[nH]c2cc(F)cc(Br)c21.[I-].[I-].[I-].[I-] [Compound 230] | 5 µM | 54.9% | 9.25 log CFU/ml | 0.5 μM | 8.79 log CFU/ml | 1 μM |  |  |  |
| C[n+]1c(-c2ccc(Oc3ccc4c(c3)C3=Nc5c6ccc(Oc7ccc(-c8[nH]c9cc(F)cc(Br)c9[n+]8C)cc7)cc6c6[n]5[Zn][n]5c(c7ccc(Oc8ccc(-c9[nH]c%10cc(F)cc(Br)c%10[n+]9C)cc8)cc7c5=NC5=NC(=N6)c6cc(Oc7ccc(-c8[nH]c9cc(F)cc(Br)c9[n+]8C)cc7)ccc65)=NC4=N3)cc2)[nH]c2cc(F)cc(Br)c21.[I-].[I-].[I-].[I-] [Compound 229] | 10 µM | 39.4% | 9.25 log CFU/ml | 0.5 μM | 8.79 log CFU/ml | 10 μM |  |  |  |
| C[n+]1c(-c2ccc(Oc3ccc4c(c3)C3=Nc5c6ccc(Oc7ccc(-c8[nH]c9ccc(Cl)cc9[n+]8C)cc7)cc6c6[n]5[Zn][n]5c(c7ccc(Oc8ccc(-c9[nH]c%10ccc(Cl)cc%10[n+]9C)cc8)cc7c5=NC5=NC(=N6)c6cc(Oc7ccc(-c8[nH]c9ccc(Cl)cc9[n+]8C)cc7)ccc65)=NC4=N3)cc2)[nH]c2ccc(Cl)cc21.[I-].[I-].[I-].[I-] [Compound 242] | 120 µM | 49.8% | 9.24 log CFU/ml | 0.5 μM | 8.79 log CFU/ml | 2.5 μM |  |  |  |
| C[n+]1c(-c2ccc(Oc3ccc4c(c3)C3=Nc5c6ccc(Oc7ccc(-c8[nH]c9cc(Cl)c(Cl)cc9[n+]8C)cc7)cc6c6[n]5[Cu][n]5c(c7ccc(Oc8ccc(-c9[nH]c%10cc(Cl)c(Cl)cc%10[n+]9C)cc8)cc7c5=NC5=NC(=N6)c6cc(Oc7ccc(-c8[nH]c9cc(Cl)c(Cl)cc9[n+]8C)cc7)ccc65)=NC4=N3)cc2)[nH]c2cc(Cl)c(Cl)cc21.[I-].[I-].[I-].[I-] [Compound 209] | 20 µM | 80.4% | 9.31 log CFU/ml | 10 μM | 8.79 log CFU/ml | 2.5 μM |  |  |  |
| C[n+]1c(-c2ccc(Oc3ccc4c(c3)C3=Nc5c6ccc(Oc7ccc(-c8[nH]c9ccc(Cl)cc9[n+]8C)cc7)cc6c6[n]5[Cu][n]5c(c7ccc(Oc8ccc(-c9[nH]c%10ccc(Cl)cc%10[n+]9C)cc8)cc7c5=NC5=NC(=N6)c6cc(Oc7ccc(-c8[nH]c9ccc(Cl)cc9[n+]8C)cc7)ccc65)=NC4=N3)cc2)[nH]c2ccc(Cl)cc21.[I-].[I-].[I-].[I-] [Compound 244] | 80 µM | 90.8% | 9.24 log CFU/ml | 10 μM | 8.79 log CFU/ml | 15 μM |  |  |  |
| Tetrakis [4-(4-(5-bromo-1H-benzo[d]imidazol-2-yl)phenoxy phthalocyaninato] copper(II) tetraiodide [Compound 219] | 10 µM | 36.9% | 9.15 log CFU/ml | 10 μM | 8.78 log CFU/ml | 12.5 μM |  |  |  |
| C[n+]1c(-c2ccc(Oc3ccc4c(c3)C3=Nc5c6ccc(Oc7ccc(-c8[nH]c9cc(Br)cc(Cl)c9[n+]8C)cc7)cc6c6[n]5[Co][n]5c(c7ccc(Oc8ccc(-c9[nH]c%10cc(Br)cc(Cl)c%10[n+]9C)cc8)cc7c5=NC5=NC(=N6)c6cc(Oc7ccc(-c8[nH]c9cc(Br)cc(Cl)c9[n+]8C)cc7)ccc65)=NC4=N3)cc2)[nH]c2cc(Br)cc(Cl)c21.[I-].[I-].[I-].[I-] [Compound 234] | 60 µM | 90.4% | 9.25 log CFU/ml | 0.5 μM | 8.79 log CFU/ml | 2.5 μM |  |  |  |
| C[n+]1c(-c2ccc(Oc3ccc4c(c3)C3=Nc5c6ccc(Oc7ccc(-c8[nH]c9cc(F)cc(Br)c9[n+]8C)cc7)cc6c6[n]5[Cu][n]5c(c7ccc(Oc8ccc(-c9[nH]c%10cc(F)cc(Br)c%10[n+]9C)cc8)cc7c5=NC5=NC(=N6)c6cc(Oc7ccc(-c8[nH]c9cc(F)cc(Br)c9[n+]8C)cc7)ccc65)=NC4=N3)cc2)[nH]c2cc(F)cc(Br)c21.[I-].[I-].[I-].[I-] [Compound 231] | 5 µM | 56.08% | 9.25 log CFU/ml | 0.5 μM | 8.79 log CFU/ml | 12.5 μM |  |  |  |
| C[n+]1c(-c2ccc(Oc3ccc4c(c3)C3=Nc5c6ccc(Oc7ccc(-c8[nH]c9ccc(Cl)cc9[n+]8C)cc7)cc6c6[n]5[Co][n]5c(c7ccc(Oc8ccc(-c9[nH]c%10ccc(Cl)cc%10[n+]9C)cc8)cc7c5=NC5=NC(=N6)c6cc(Oc7ccc(-c8[nH]c9ccc(Cl)cc9[n+]8C)cc7)ccc65)=NC4=N3)cc2)[nH]c2ccc(Cl)cc21.[I-].[I-].[I-].[I-] [Compound 243] | 120 µM | 62.4% | 9.24 log CFU/ml | 4 μM | 8.79 log CFU/ml | 2.5 μM |  |  |  |
| C[n+]1c(-c2ccc(Oc3ccc4c(c3)C3=Nc5c6ccc(Oc7ccc(-c8[nH]c9cc(Cl)c(Cl)cc9[n+]8C)cc7)cc6c6[n]5[Co][n]5c(c7ccc(Oc8ccc(-c9[nH]c%10cc(Cl)c(Cl)cc%10[n+]9C)cc8)cc7c5=NC5=NC(=N6)c6cc(Oc7ccc(-c8[nH]c9cc(Cl)c(Cl)cc9[n+]8C)cc7)ccc65)=NC4=N3)cc2)[nH]c2cc(Cl)c(Cl)cc21.[I-].[I-].[I-].[I-] [Compound 208] | 20 µM | 78.4% | 9.31 log CFU/ml | 2 μM | 8.79 log CFU/ml | 1 μM |  |  |  |
| C[n+]1c(-c2ccc(Oc3ccc4c(c3)C3=Nc5c6ccc(Oc7ccc(-c8[nH]c9cc(Cl)cc(Cl)c9[n+]8C)cc7)cc6c6[n]5[Cu][n]5c(c7ccc(Oc8ccc(-c9[nH]c%10cc(Cl)cc(Cl)c%10[n+]9C)cc8)cc7c5=NC5=NC(=N6)c6cc(Oc7ccc(-c8[nH]c9cc(Cl)cc(Cl)c9[n+]8C)cc7)ccc65)=NC4=N3)cc2)[nH]c2cc(Cl)cc(Cl)c21.[I-].[I-].[I-].[I-] [Compound 201] | 120 µM | 45.4% | 9.61 log CFU/ml | 8 μM | 8.79 log CFU/ml | 12.5 μM | 120 µM | 45.4% | 9.63 |
